Laboratory results as given in patent publication US20240239799A1, “(S)-1-(5-((PYRIDIN-3-YL)THIO)PYRAZIN-2-YL)-4'H,6'H-SPIRO[PIPERIDINE-4,5'-PYRROLO [1,2-B]PYRAZOL]-4'-AMINE DERIVATIVES AND SIMILAR COMPOUNDS AS SHP2 INHIBITORS FOR THE TREATMENT OF E.G. CANCER” (C.N.C.C.S. S.C.A.R.L. COLLEZIONE NAZIONALE DEI COMPOSTI …, priority 2021, published 2024).
Like-named read-outs stand apart in the source and are kept apart here.

How the values were obtained:
[1] = target: T1, SHP-2 enzyme (Met1-Leu525) (Homo sapiens, UniProt Q06124); experiment: SHP2 inhibition enzymatic assay (DiFMUP substrate, IRS1 peptide activation); format: biochemical; settings: 0.5 nM SHP-2, 500 nM IRS1 peptide, 75 μM DiFMUP; read-out: SHP2wt - IC50
T1 construct: synthetized by Origene, Met1-Leu525, cat #TP750155; purchased Origene TP750155
T1 sequence (Q06124 1-525): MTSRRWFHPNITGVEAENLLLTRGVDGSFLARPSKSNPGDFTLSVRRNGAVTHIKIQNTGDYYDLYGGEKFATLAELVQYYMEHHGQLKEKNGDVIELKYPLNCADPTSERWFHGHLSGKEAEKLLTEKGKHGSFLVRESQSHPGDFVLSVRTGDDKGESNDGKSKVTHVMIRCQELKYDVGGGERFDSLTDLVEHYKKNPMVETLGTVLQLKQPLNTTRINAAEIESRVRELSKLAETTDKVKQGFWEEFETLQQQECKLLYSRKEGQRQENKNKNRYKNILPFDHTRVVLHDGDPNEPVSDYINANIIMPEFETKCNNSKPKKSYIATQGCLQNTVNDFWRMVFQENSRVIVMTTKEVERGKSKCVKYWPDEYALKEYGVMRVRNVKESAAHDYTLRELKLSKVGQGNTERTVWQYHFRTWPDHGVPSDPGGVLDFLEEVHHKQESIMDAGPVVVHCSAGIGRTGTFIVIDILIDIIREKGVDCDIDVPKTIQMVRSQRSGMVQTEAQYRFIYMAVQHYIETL
Method: Assay volume of 20 μL/well was assembled in 384 well black polystyrene low-binding microplates (Greiner), using the following buffer: 60 mM HEPES pH 7.2, 75 mM NaCl, 75 mM KCl, 1 mM EDTA pH 8, 0.05% tween-20, 5 mM DTT. The SHP-2 enzyme (synthetized by Origene, Met1-Leu525, cat #TP750155) was used at a final concentration of 0.5 nM.
Briefly, DMSO serially diluted testing compounds were transferred to the bottom of the assay plate. SHP2 was then added together with the IRS1 peptide 30 min post incubation, the DiFMUP substrate was added to the reaction and incubated 30 min at rt. […] The fluorescence was detected by a microplate reader (Envision, PerkinElmer) according to the DiFMUP excitation and emission wavelength. The lower the fluorescence the higher the SHP2 inhibition.
The percentage inhibition is fitted against the compound dilutions with a four-parameter logistic regression. The inflection point (i.e. the concentration at which half-maximal inhibition is achieved) is the IC50.

[2] = tested on: phospho-ERK1/2 (Thr202/Tyr204) in KYSE-520 cells; experiment: Phospho-ERK cellular assay (TR-FRET); format: cell-based; settings: KYSE-520 cells, 2 h at 37° C., read-out: pERK IC50
Method: ERK phosphorylation was detected using the “Advanced phospho-ERK1/2 (Thr202/Tyr204)” TR-FRET kit (Cisbio, Cat #64AERPEG/H), following the manufacturer reagents and instructions.
Briefly, 20.000/well KYSE-520 cells (DSMZ ACC 371) were plated in 6 μL RPMI-1640 (Invitrogen) growth medium, into 384 white low-volume high base TC microplates (Greiner). After an overnight incubation, cells were treated with DMSO serial diluted compounds and incubated for 2 h at 37° C. After incubation, 2 μL/well of 4X Lysis Buffer (Cisbio 64KL1FDF), were added and incubated with cells for 30 min on gentle shaking. Finally, lysates were added with 2 μL/well of Eu cryptate (donor) and D2 (acceptor) conjugated antibodies (as provided by the Cisbio kit #64AERPEG/H) diluted 1:100 in Detection Buffer (as provided by the Cisbio kit #64AERPEG/H). Plates were then sealed and incubated at rt in the dark. After an overnight incubation, the TR-FRET signal was detected on a suitable reader (Envision, PerkinElmer). The lower the TR-FRET signal the higher the higher the SHP2 inhibition in cells.
The activity of each compound dilution was calculated as percentage between vehicle DMSO treated cells and no cells, 0% inhibition and 100% inhibition respectively. The percentage activity is fitted against the compound dilutions with a four-parameter logistic regression. The inflection point (i.e. the concentration at which half-maximal inhibition is achieved) is the IC50.

IC50 [1] [nM]	IC50 [2] [nM]	IC50 ([2]; Homo sapiens, KYSE-520, 2 h) [nM]	SMILES
≤ 50	100 to 500	–	Cc1nc(N2CCC3(CC2)Cn2nccc2[C@H]3N)cc(=O)n1-c1cccc(Cl)c1Cl (single isomer, unassigned) [Example 77a]
> 300	> 500	–	Cc1nc(N2CCC3(CC2)Cn2nccc2[C@H]3N)cc(=O)n1-c1cccc(Cl)c1Cl (single isomer, unassigned) [Example 77b]
≤ 50	100 to 500	–	Cc1nc(N2CCC3(CC2)Cn2nccc2[C@H]3N)c(Cl)c(=O)n1-c1cccc(Cl)c1Cl (single isomer, unassigned) [Example 78a]
> 300	> 500	–	Cc1nc(N2CCC3(CC2)Cn2nccc2[C@H]3N)c(Cl)c(=O)n1-c1cccc(Cl)c1Cl (single isomer, unassigned) [Example 78b]
≤ 50	–	> 500	N[C@@H]1c2ccnn2CC12CCN(c1nc3nc(Sc4cccnc4C(F)(F)F)cnc3[nH]1)CC2 [Example 1, (S)-1-(5-((2-(trifluoromethyl)pyridin-3-yl)thio)-1H-imidazo[4,5-b]pyrazin-2-yl)-4′H,6′H-spiro[piperidine-4,5′-pyrrolo[1,2-b]pyrazol]-4′-amine]
≤ 50	–	> 500	Nc1nccc(Sc2cnc3[nH]c(N4CCC5(CC4)Cn4nccc4[C@H]5N)nc3n2)c1Cl [Example 2, (S)-1-(5-((2-amino-3-chloropyridin-4-yl)thio)-1H-imidazo[4,5-b]pyrazin-2-yl)-4′H,6′H-spiro[piperidine-4,5′-pyrrolo[1,2-b]pyrazol]-4′-amine]
≤ 50	–	< 100	Nc1nc(N2CCC3(CC2)Cn2nccc2[C@H]3N)cnc1Sc1cccnc1C(F)(F)F [Example 3, (S)-1-(6-amino-5-((2-(trifluoromethyl)pyridin-3-yl)thio)pyrazin-2-yl)-4′H,6′H-spiro[piperidine-4,5′-pyrrolo[1,2-b]pyrazol]-4′-amine]
≤ 50	–	< 100	Nc1nc(N2CCC3(CC2)Cn2nccc2[C@H]3N)cnc1Sc1ccnc(N)c1Cl [Example 4, (S)-1-(6-amino-5-((2-amino-3-chloropyridin-4-yl)thio)pyrazin-2-yl)-4′H,6′H-spiro[piperidine-4,5′-pyrrolo[1,2-b]pyrazol]-4′-amine]
≤ 50	–	< 100	Cc1cnn2c1[C@@H](N)C1(CCN(c3cnc(Sc4ccnc(N)c4Cl)cn3)CC1)C2 [Example 10, (S)-1-(5-((2-amino-3-chloropyridin-4-yl)thio)pyrazin-2-yl)-3′-methyl-4′H,6′H-spiro[piperidine-4,5′-pyrrolo[1,2-b]pyrazol]-4′-amine]
≤ 50	–	100 to 500	COc1cc2n(n1)CC1(CCN(c3cnc(Sc4ccnc(N)c4Cl)cn3)CC1)[C@@H]2N [Example 12, (S)-1-(5-((2-amino-3-chloropyridin-4-yl)thio)pyrazin-2-yl)-2′-methoxy-4′H,6′H-spiro[piperidine-4,5′-pyrrolo[1,2-b]pyrazol]-4′-amine]
≤ 50	–	< 100	N[C@@H]1c2ccnn2CC12CCN(c1ncc(Sc3ccnc4c3OC[C@@H]3CCCN43)c3nccn13)CC2 [Example 17, (S)-1-(8-(((S)-6a,7,8,9-tetrahydro-6H-pyrido[3,2-b]pyrrolo[1,2-d][1,4]oxazin-4-yl)thio)imidazo[1,2-c]pyrimidin-5-yl)-4′H,6′H-spiro[piperidine-4,5′-pyrrolo[1,2-b]pyrazol]-4′-amine]
≤ 50	–	< 100	Nc1nc(N2CCC3(CC2)Cn2nc4c(c2[C@H]3N)CCC4)cnc1Sc1ccnc(N)c1Cl [Example 20, (S)-1′-(6-amino-5-((2-amino-3-chloropyridin-4-yl)thio)pyrazin-2-yl)-1,2,3,8-tetrahydro-6H-spiro[cyclopenta[d]pyrrolo[1,2-b]pyrazole-7,4′-piperidin]-8-amine]
> 300	–	> 500	Nc1nccc(Sc2cnc(N3CCC4(CC3)Cn3nc5c(c3C4O)CCC5)c3cncn23)c1Cl (stereo not shown) [Example 22, 1′-(5-((2-amino-3-chloropyridin-4-yl)thio)imidazo[1,5-a]pyrazin-8-yl)-1,2,3,8-tetrahydro-6H-spiro[cyclopenta[d]pyrrolo[1,2-b]pyrazole-7,4′-piperidin]-8-ol]
50 to 300	–	> 500	N[C@@H]1c2ccnn2CC12CCN(c1ncc(Sc3ccnc4c3OC[C@H]3CC5(CC5)CN43)n3cncc13)CC2 [Example 24, (S)-1-(5-(((R)-6a′,7′-dihydro-6′H,9′H-spiro[cyclopropane-1,8′-pyrido[3,2-b]pyrrolo[1,2-d][1,4]oxazin]-4′-yl)thio)imidazo[1,5-a]pyrazin-8-yl)-4′H,6′H-spiro[piperidine-4,5′-pyrrolo[1,2-b]pyrazol]-4′-amine]
≤ 50	–	< 100	N[C@@H]1c2ccnn2CC12CCN(c1cnc(Sc3ccnc4c3OC[C@@H]3CC5(CC5)CN43)cn1)CC2 [Example 25, (S)-1-(5-(((S)-6a′,7′-dihydro-6′H,9′H-spiro[cyclopropane-1,8′-pyrido[3,2-b]pyrrolo[1,2-d][1,4]oxazin]-4′-yl)thio)pyrazin-2-yl)-4′H,6′H-spiro[piperidine-4,5′-pyrrolo[1,2-b]pyrazol]-4′-amine]
–	–	< 100	N[C@@H]1c2ccnn2CC12CCN(c1cnc(Sc3ccnc(-n4cccn4)c3Cl)cn1)CC2 [Example 33, (S)-1-(5-((3-chloro-2-(1H-pyrazol-1-yl)pyridin-4-yl)thio)pyrazin-2-yl)-4′H,6′H-spiro[piperidine-4,5′-pyrrolo[1,2-b]pyrazol]-4′-amine]
–	–	< 100	Cc1cn2ccc(Sc3cnc(N4CCC5(CC4)Cn4nccc4[C@H]5N)cn3)c(Cl)c2n1 [Example 43, (S)-1-(5-((8-chloro-2-methylimidazo[1,2-a]pyridin-7-yl)thio)pyrazin-2-yl)-4′H,6′H-spiro[piperidine-4,5′-pyrrolo[1,2-b]pyrazol]-4′-amine]
–	–	< 100	Nc1nc(N2CCC3(CC2)Cn2nccc2[C@H]3N)cnc1Sc1ccn2ccnc2c1Cl [Example 44, (S)-1-(6-amino-5-((8-chloroimidazo[1,2-a]pyridin-7-yl)thio)pyrazin-2-yl)-4′H,6′H-spiro[piperidine-4,5′-pyrrolo[1,2-b]pyrazol]-4′-amine]
≤ 50	–	–	Cc1nccc(Sc2cnc(N3CCC4(CC3)Cn3cccc3[C@H]4N)cn2)c1F [Example 87, (S)-1-(5-((3-fluoro-2-methylpyridin-4-yl)thio)pyrazin-2-yl)-1′H,3′H-spiro[piperidine-4,2′-pyrrolizin]-1′-amine]
≤ 50	–	–	Cc1c(N2CCC3(CC2)Cn2nccc2[C@H]3N)nc(C)n(-c2cccc(Cl)c2Cl)c1=O [Example 88, (S)-6-(4′-amino-4′H,6′H-spiro[piperidine-4,5′-pyrrolo[1,2-b]pyrazol]-1-yl)-3-(2,3-dichlorophenyl)-2,5-dimethylpyrimidin-4(3H)-one]
50 to 300	–	–	Cc1nccc(-c2ncc3c(N4CCC5(CC4)Cn4nccc4[C@H]5N)nccn23)c1F [Example 89, (S)-1-(3-(3-fluoro-2-methylpyridin-4-yl)imidazo[1,5-a]pyrazin-8-yl)-4′H,6′H-spiro[piperidine-4,5′-pyrrolo[1,2-b]pyrazol]-4′-amine]
50 to 300	–	–	N[C@@H]1c2ccnn2CC12CCN(c1ccc(Oc3cccc(Cl)c3Cl)nc1)CC2 [Example 90, (S)-1-(6-(2,3-dichlorophenoxy)pyridin-3-yl)-4′H,6′H-spiro[piperidine-4,5′-pyrrolo[1,2-b]pyrazol]-4′-amine]
